According to patent US8206593B2, “Microfluidic chemical reaction circuits” (Fluidigm Corporation, priority 2004, dated 2012):

Test system: tumor-bearing mouse (M-MSV/M-MuLV rhabdomyosarcoma)
Experiment: microPET/microCT imaging of a tumor-bearing mouse injected with [18F]FDG
Format: in vivo
Conditions: 272 microCi via tail vein; 1-h uptake and non-specific clearance; imaged 15 minutes; FDG produced in a microfluidic chip
Excerpt: Mouse Model. The tumor model used was a strongly immunogenic, non-metastasizing retrovirally-induced rhabdomyosarcoma (M-MSV/M-MuLV) (Fletcher et al., 2002, Tetrahedron 58:4735). MSV is a replication-defective, acutely transforming retrovirus carried with helper activity provided by M-MuLV, which encodes the gag, pol, and env components that are necessary for cell infection and replication (Worz et al., 2001, Chemical Engineering Science 56:1029). Rhabdomyosarcomas develop at the intramuscular inoculation site after a short latency period (7-10 days) and regress over a period of 4-5 wk following the induction of a strong immune reaction in immunocompetent adult mice. These lesions were characterized by a mixture of virus-infected myocytes and a large infiltrate of lymphocytes, granulocytes, and macrophages. Both cellular and humoral immune responses induced are dependent on presentation by H-2 D^b alleles (Watts et al., 2003, Current Opinion in Chemical Biology 7:380). Rejection was mediated by CD8+ cytolytic T cells, which recognize peptides from the gag and env proteins of M-MuLV, and requires help from CD4+ T cells (Kobayashi et al., 2004, Science 304:1305; Chan et al., 2003, Nano Letters 3:199; Kawaguchi et al., 2005, Angewandte Chemie-International Edition 44:2413)
Mouse imaging. The tumor bearing mouse was injected with 272 microCi of FDG via tail vein. […]

**Q.** Which “Organs visible in microPET/microCT image” value does the source give for “2-deoxy-2-[^18F]fluoro-D-glucose [[^18F]FDG]” here?
**A.** bladder, kidneys, heart, tumor and two lymph nodes
